This is an account of results in publication PMC6680932, “Structure–Antioxidant–Antiproliferative Activity Relationships of Natural C7 and C7–C8 Hydroxylated Flavones and Flavanones” (Antioxidants, 2019).

Data set [1] in a line: ABTS radical cation decolorization assay. The settings on record: 6 min incubation, 734 nm; mean ± SD. As for the experimental part: The antioxidant capacity of flavonoids was measured in three separate tests: ABTS, DPPH, and ferric ion reducing antioxidant power (FRAP) assays (ABTS, DPPH, and FRAP reagents from Sigma-Aldrich). All tested compounds were dissolved in DMSO. All determinations were performed in triplicate. Standard curves were prepared for all assays using different concentrations of Trolox (6-hydroxy-2,5,7,8-tetramethylchroman-2-carboxylic acid) (Sigma-Aldrich). Trolox is a water-soluble analogue of vitamin E with high antioxidant activity, commonly used as a control and a reference in studies of antioxidant activity. The results were expressed as the equivalent of μmol Trolox per μmol of the test compound. The absorbance was measured using a UV-2401 PC spectrophotometer (Shimadzu, Kyoto, Japan). Concentrations of the tested samples were in the range from 50 µg/mL to 10 mg/mL.
The radical cation scavenging capacity of the tested compounds was examined against ABTS^+ (2,2’-azino-bis(3-ethylbenzo-thiazoline-6-sulfonic acid) according to the procedure described by Re et al. with some modifications. The test sample (30 μL) of known concentration was mixed in a polystyrene cuvette with 3 mL of ABTS solution with a measured absorption of 0.700 at a wavelength of λ = 734 nm. After 6 min of incubation, the absorption of samples was recorded. The ABTS reagent was freshly prepared before each experiment.

A short description of data set [2]: Stability of flavonoids in DMSO (control), HPLC. Format: physicochemical. The settings on record: 3 h of incubation. As for the experimental part: (§1) Flavonoids were dissolved (as described in Section 2.4) to the concentration of 100 µg/mL. The solutions corresponding to the solutions before the administration to the cell cultures were incubated in 96-well plates for 3 h and transferred to microtubes containing 400 µL of cold methanol (−20 °C) and kept at −20 °C for 1 h. After centrifugation at 12,000× g for 10 min, samples were analyzed by HPLC. Control experiments were also carried out to determine the stability of flavonoids in DMSO under analogous conditions.

A short description of data set [3]: Stability of flavonoids before administration to the cell cultures (diluted in RPMI 1640/Opti-MEM medium), HPLC. The settings on record: 100 µg/mL, medium with 2 mM L-glutamine, 5% fetal bovine serum, penicillin, streptomycin; 3 h incubation. Format: physicochemical. As for the experimental part: Tested compounds were dissolved in DMSO and then diluted in a 1:1 (v/v) mixture of RPMI 1640 (HIIET, PAS, Wroclaw, Poland) and Opti-MEM (Gibco, Scotland, UK) medium supplemented with 2 mM L-glutamine (Sigma-Aldrich, Poznan, Poland), 5% fetal bovine serum (GE Healthcare), 100 units/mL penicillin (Polfa Tarchomin S.A., Warsaw, Poland), and 100 µg/mL streptomycin (Sigma-Aldrich, Poznan, Poland). The antiproliferative effects of the flavonoids were examined after 72 h of exposure of the cultured cells to varying concentrations of the tested agents (from 0.1 to 100 μg/mL) using the MTT (for MV-4-11 cells) or SRB assay described below. Cisplatin (chemotherapy drug used to treat a number of cancers) was used as a positive control. The results are presented as an inhibitory concentration 50 (IC50), which is the concentration of the tested agent that inhibits proliferation of the cell population by 50%. IC50 values for each experiment were calculated separately.
as §1

Regarding `O=C1C[C@@H](c2ccc(O)cc2)Oc2cc(O)cc(O)c21` [Compound 6, naringenin], in data set [1], the “TEAC ABTS” value is on record as 0.347 ± 0.020 µmol trolox per µmol of tested. In data set [2], the “compound observed after incubation in DMSO” value (“compound observed” for short) is reported as “over 99%”. In data set [3], the “stability after dilution with 1:1 RPMI 1640/Opti-MEM medium” value was “stable”.

For `O=c1cc(-c2ccc(O)cc2)oc2c(O)c(O)cc(O)c12` [Compound 10, 8-hydroxyapigenin], the “TEAC ABTS” value in data set [1] is listed as 10.184 ± 1.768 µmol trolox per µmol of tested. For the same molecule, the “compound observed” value in data set [2] is on record as “over 99%”. For the same molecule, the “stability after dilution with 1:1 RPMI 1640/Opti-MEM medium” value in data set [3] is given as “complete decomposition”.

Turning to `O=c1cc(-c2ccc(O)cc2)oc2cc(O)cc(O)c12` [Compound 2, apigenin], in data set [1], the “TEAC ABTS” value is listed as 0.250 ± 0.014 µmol trolox per µmol of tested. In data set [2], the “compound observed” value is “over 99%”. Also, the “stability after dilution with 1:1 RPMI 1640/Opti-MEM medium” value in data set [3] is listed as “stable”.
